Measured values as given in ChEMBL document CHEMBL5352392, “Design, synthesis, and biological evaluation of novel dual inhibitors of heat shock protein 90/mammalian target of rapamycin (Hsp90/mTOR) against bladder cancer cells” (Eur J Med Chem, 2022).

Key:
[1] = molecular target: T1, Serine/threonine-protein kinase mTOR (Homo sapiens, UniProt P42345); assay: Inhibition of mTOR (unknown origin) at 100 nM by kinase profiling assay relative to control
J82 [2] = assay: Antiproliferative activity against human J82 cells assessed as inhibition of cell proliferation at 1 uM by CCK8 assay relative to control; assay type: functional
T-24 [3] = assay: Antiproliferative activity against human T24 cells assessed as inhibition of cell proliferation at 1 uM by CCK8 assay relative to control; assay type: functional
SW780 [4] = assay: Antiproliferative activity against human SW780 cells assessed as inhibition of cell proliferation at 1 uM by CCK8 assay relative to control; assay type: functional
Heat shock protein HSP90 [5] = molecular target: T2, Heat shock protein HSP90 (Homo sapiens, UniProt P07900+P08238); assay: Inhibition of Hsp90 (unknown origin) by TR-FRET assay; assay type: protein assay
[6] = molecular target: T1, Serine/threonine-protein kinase mTOR; assay: Inhibition of mTOR (unknown origin) by kinase profiling assay
[7] = molecular target: Phosphatidylinositol 4,5-bisphosphate 3-kinase catalytic subunit alpha isoform (Homo sapiens, UniProt P42336); assay: Inhibition of PI3Kalpha (unknown origin) by kinase profiling assay
Chain of Phosphatidylinositol 4,5-bisphosphate 3-kinase catalytic subunit alpha isoform (P42336 whole entry, canonical isoform): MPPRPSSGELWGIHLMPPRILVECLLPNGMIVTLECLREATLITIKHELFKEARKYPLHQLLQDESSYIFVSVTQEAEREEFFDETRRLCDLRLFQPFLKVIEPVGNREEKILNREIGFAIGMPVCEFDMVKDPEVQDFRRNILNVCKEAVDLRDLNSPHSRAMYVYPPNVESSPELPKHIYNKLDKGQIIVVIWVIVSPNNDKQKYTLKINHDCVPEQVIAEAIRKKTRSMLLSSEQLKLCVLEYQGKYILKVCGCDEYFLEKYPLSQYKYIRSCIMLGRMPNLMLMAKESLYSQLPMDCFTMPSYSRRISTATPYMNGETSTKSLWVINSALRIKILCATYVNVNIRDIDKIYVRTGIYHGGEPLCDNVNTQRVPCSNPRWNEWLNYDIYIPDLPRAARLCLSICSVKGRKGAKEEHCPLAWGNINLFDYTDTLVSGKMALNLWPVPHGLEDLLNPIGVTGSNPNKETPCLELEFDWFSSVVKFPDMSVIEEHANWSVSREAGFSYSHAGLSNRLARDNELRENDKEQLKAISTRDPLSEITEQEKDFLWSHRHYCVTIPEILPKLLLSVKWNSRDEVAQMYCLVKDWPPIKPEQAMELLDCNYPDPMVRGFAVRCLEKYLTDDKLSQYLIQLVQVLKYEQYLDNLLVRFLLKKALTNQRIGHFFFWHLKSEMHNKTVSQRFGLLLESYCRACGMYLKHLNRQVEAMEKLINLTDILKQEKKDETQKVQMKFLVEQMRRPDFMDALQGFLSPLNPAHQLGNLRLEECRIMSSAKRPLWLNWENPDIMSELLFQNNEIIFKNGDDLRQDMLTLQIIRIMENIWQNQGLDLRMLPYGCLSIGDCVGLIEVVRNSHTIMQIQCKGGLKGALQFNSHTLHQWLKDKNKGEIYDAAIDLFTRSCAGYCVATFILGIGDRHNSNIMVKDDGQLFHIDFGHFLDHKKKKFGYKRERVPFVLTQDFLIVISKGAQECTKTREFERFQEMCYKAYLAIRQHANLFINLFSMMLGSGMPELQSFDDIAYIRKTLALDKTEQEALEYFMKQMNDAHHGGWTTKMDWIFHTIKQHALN

J82 [8] = assay: Antiproliferative activity against human J82 cells assessed as inhibition of cell proliferation by CCK8 assay; assay type: functional, cell-based
T-24 [9] = assay: Antiproliferative activity against human T24 cells assessed as inhibition of cell proliferation by CCK8 assay; assay type: functional, cell-based
SW780 [10] = assay: Antiproliferative activity against human SW780 cells assessed as inhibition of cell proliferation by CCK8 assay; assay type: functional, cell-based
Heat shock protein HSP90 [11] = molecular target: T2, Heat shock protein HSP90; details: dose 100.0 nM
Description: Inhibition of Hsp90 (unknown origin) at 100 nM by TR-FRET assay relative to control

Compound | inhibition [1] | inhibition at 1 µM (J82 [2]) | inhibition at 1 µM (T-24 [3]) | inhibition at 1 µM (SW780 [4]) | IC50 (Heat shock protein HSP90 [5]) | IC50 [6] | IC50 [7] | IC50 (J82 [8]) | IC50 (T-24 [9]) | IC50 (SW780 [10]) | inhibition (Heat shock protein HSP90 [11])
CC(C)c1cc(C(=O)N2CCc3c(sc4nc(-c5ccc(NC(=O)Nc6cc(Cl)cc(Cl)c6)cc5)nc(N5CCOCC5)c34)C2)c(O)cc1O | 73.5% | 69.1% | 67% | 77.8% | 365 nM | 106 nM | 5630 nM | 1590 nM | 550 nM | 690 nM | 68.3%
CC(C)c1cc(C(=O)N2CCc3c(sc4nc(-c5ccc(NC(=O)Nc6cccc(C(F)(F)F)c6)cc5)nc(N5CCOCC5)c34)C2)c(O)cc1O | 66.3% | 69.1% | 82.5% | 65.6% | 126 nM | 218 nM | 2450 nM | 2760 nM | 940 nM | 660 nM | 73.8%
